Measurements reported in patent EP0061056A1, “5,6-Dimethylpyrrolo (2,3-b) pyridines, process for their preparation and their use as medicaments” (Troponwerke GmbH & Co. KG, priority 1981, dated 1982).
Where two headings read alike, the source gives them in different places.

Tested on: Kaolinödem der Rattenpfote
Test: Kaolin-induced rat paw oedema (inhibition of inflammation)
Assay type: in vivo, Ratte
Conditions: kaolin oedema of the rat paw
Procedure: Die tierexperimentelle Prüfung der erfindungsgemäßen Verbindungen ergab, daß ein Teil dieser Substanzen sedative und antikonvulsive Eigenschaften besitzt. Darüber hinaus führen sie auch zu einer Hemmung der Entzündung, gemessen an der Beeinflussen des Pfotenödems der Ratte nach Kaolininjektion.
Bei oraler Applikation zeigen die erfindungsgemäßen Verbindungen eine signifikante entzündungshemmende Wirkung am Kaolinödem der Rattenpfote nach Gaben von 25 mg/kg. Bei intramuskulärer Applikation zeigen die Verbindungen bereits bei Dosierung von 10 mg/kg eine deutliche Hemmung der Entzündung. Für die Verbindung des Beispiels 1 beträgt die DE 50 bei oraler Applikation 68 mg/kg und die DE50 bei intramuskulärer Applikation 0,9 mg/kg.

`Cc1c(C)n(-c2ccccc2)c2nccc(N)c12` [Beispiel 1, 4-Amino-5,6-dimethyl-7-phenyl-pyrrolo[2,3-b]-7-pyridin] showed an ED50 (im, intramuscular application, read-out: DE50 (the source's name)) of 0.9 mg/kg and an ED50 (oral application, read-out: DE 50 (the source's name)) of 68 mg/kg.
